Laboratory results taken from patent US10105357B2, “Indication of antibiotic drugs for preparation of cancer inhibition pharmaceutical composition” (LAUNX BIOMEDICAL CO., LTD., priority 2014, dated 2018).
Where a name gives a salt, the structure may show the parent alone. Read-outs that look alike come from different tables or passages of the source.

Key:
Assay type in all cases: cell-based, human
[1] = test system: cancer cell lines; test: Cell viability analysis (WST-1) on cancer cell lines; details: drug 10 μM, 72 hours, WST-1; Table 3
[2] = test system: HI650 (Lung Adenocarcinoma); test: Cell viability analysis, lung cancer HI650; details: Homo sapiens
[3] = test system: A549 (Lung Adenocarcinoma); test: Cell viability analysis, lung cancer A549; details: Homo sapiens
[4] = test system: AGS (Gastric Adenocarcinoma); test: Cell viability analysis, gastric cancer AGS; details: Homo sapiens
[5] = test system: MKN-45 (Gastric Adenocarcinoma); test: Cell viability analysis, gastric cancer MKN-45; details: Homo sapiens
[6] = test system: HepG2 (Hepatocellular Carcinoma); test: Cell viability analysis, hepatic cancer HepG2; details: Homo sapiens
[7] = test system: Hep3B (hepatocellular carcinoma); test: Cell viability analysis, hepatic cancer Hep3B; details: Homo sapiens, Hep3B, 72 h, read-out: The results of antibiotic drug inhibiting cancer cell lines (cell viability analysis), Hep3B
[8] = test system: LoVo (Colorectal Adenocarcinoma); test: Cell viability analysis, colon cancer LoVo; details: Homo sapiens, LoVo
[9] = test system: A375 (Amelanotic Melanoma); test: Cell viability analysis, skin cancer A375; details: Homo sapiens
[10] = test system: BCC (basal cell carcinoma); test: Cell viability analysis, skin cancer BCC; details: Homo sapiens, 72 h, read-out: The results of antibiotic drug inhibiting cancer cell lines (cell viability analysis), BCC
[11] = test system: HeLa (Cervix Adenocarcinoma); test: Cell viability analysis, cervical cancer HeLa; details: Homo sapiens, HeLa
[12] = test system: C-33A (Cervical carcinoma); test: Cell viability analysis, cervical cancer C-33A; details: Homo sapiens, C-33-A, 72 h, read-out: The results of antibiotic drug inhibiting cancer cell lines (cell viability analysis), C-33A
[13] = test system: PC3 (p53−) (Prostate Adenocarcinoma); test: Cell viability analysis, prostate cancer PC3; details: Homo sapiens
[14] = test system: TSGH-8301 (Urinary Bladder Carcinoma); test: Cell viability analysis, bladder cancer TSGH-8301; details: Homo sapiens
[15] = test system: T24; test: Cell viability analysis, bladder cancer T24; details: Homo sapiens, T-24, 72 h, read-out: The results of antibiotic drug inhibiting cancer cell lines (cell viability analysis), T24
[16] = test system: MCF7 (Mammary Gland, Adenocarcinoma); test: Cell viability analysis, breast cancer MCF7; details: Homo sapiens
[17] = test system: MDA-MB-231 (Mammary Gland, Adenocarcinoma); test: Cell viability analysis, breast cancer MDA-MB-231; details: Homo sapiens, MDA-MB-231, 72 h, read-out: The results of antibiotic drug inhibiting cancer cell lines (cell viability analysis), MDA-MB231
[18] = test system: BxPC-3; test: Cell viability analysis, pancreatic cancer BxPC-3; details: Homo sapiens, BXPC-3, 72 h, read-out: The results of antibiotic drug inhibiting cancer cell lines (cell viability analysis), BxPC-3
[19] = test system: AsPC-1; test: Cell viability analysis, pancreatic cancer AsPC-1; details: Homo sapiens, ASPC1, 72 h, read-out: The results of antibiotic drug inhibiting cancer cell lines (cell viability analysis), AsPC-1
[20] = test system: NIH: OVCAR-3; test: Cell viability analysis, ovarian cancer NIH: OVCAR-3; details: Homo sapiens, OVCAR-3, 72 h, read-out: The results of antibiotic drug inhibiting cancer cell lines (cell viability analysis), NIH-OVCAR-3
[21] = test system: TOV-21G; test: Cell viability analysis, ovarian cancer TOV-21G; details: Homo sapiens, TOV21G, 72 h, read-out: The results of antibiotic drug inhibiting cancer cell lines (cell viability analysis), TOV-21G
[22] = test system: SAS (Tongue squamous cell carcinoma); test: Cell viability analysis, tongue cancer SAS; details: Homo sapiens, 72 h, read-out: The results of antibiotic drug inhibiting cancer cell lines (cell viability analysis), SAS
[23] = test system: U-2OS; test: Cell viability analysis, osteosarcoma U-2OS; details: Homo sapiens, U2OS, 72 h, read-out: The results of antibiotic drug inhibiting cancer cell lines (cell viability analysis), U2OS
[24] = test system: 786-O (Renal adenocarcinoma); test: Cell viability analysis, renal cancer 786-O; details: Homo sapiens, 786-0, 72 h, read-out: The results of antibiotic drug inhibiting cancer cell lines (cell viability analysis), 786-O
[25] = test system: HL-60 (Acute Promyelocytic Leukemia); test: Cell viability analysis, leukemia HL-60; details: Homo sapiens

Cc1cc(C(C)(C)C)cc(C)c1CC1=NCCN1 [Xylometazoline HCl]
inhibition effect on different cancer cell lines [1]: significant inhibition effect
viability at 10 µM ([2]; NCI-H1650, 72 h, H1650, repeated experiment, read-out: The results of antibiotic drug inhibiting cancer cell lines (cell viability analysis), H1650): 95.3%
viability at 10 µM ([2]; NCI-H1650, drug 10 μM, 72 hours, WST-1, OD450 nm, read-out: cell viability (survival rate), H1650): 33.4%
viability at 10 µM ([3]; 72 h, A549, repeated experiment, read-out: The results of antibiotic drug inhibiting cancer cell lines (cell viability analysis), A549): 83%
viability at 10 µM ([3]; A549, drug 10 μM, 72 hours, WST-1, OD450 nm, read-out: cell viability (survival rate), A549): 74.7%
viability at 10 µM ([4]; 72 h, AGS, repeated experiment, read-out: The results of antibiotic drug inhibiting cancer cell lines (cell viability analysis), AGS): 125%
viability at 10 µM ([4]; drug 10 μM, 72 hours, WST-1, OD450 nm, read-out: cell viability (survival rate), AGS): 52.2%
viability at 10 µM ([5]; 72 h, MKN-45, repeated experiment, read-out: The results of antibiotic drug inhibiting cancer cell lines (cell viability analysis), MKN-45): 121%
viability at 10 µM ([5]; MKN-45, drug 10 μM, 72 hours, WST-1, OD450 nm, read-out: cell viability (survival rate), MKN-45): 65.8%
viability at 10 µM ([6]; 72 h, HepG2, repeated experiment, read-out: The results of antibiotic drug inhibiting cancer cell lines (cell viability analysis), HepG2): 106%
viability at 10 µM ([6]; HepG2, drug 10 μM, 72 hours, WST-1, OD450 nm, read-out: cell viability (survival rate), HepG2): 83%
viability at 10 µM [7]: 114%
viability at 10 µM ([8]; 72 h, repeated experiment, read-out: The results of antibiotic drug inhibiting cancer cell lines (cell viability analysis), LoVo): 88.7%
viability at 10 µM ([8]; drug 10 μM, 72 hours, WST-1, OD450 nm, read-out: cell viability (survival rate), LoVo): 47.1%
viability at 10 µM ([9]; A-375, 72 h, A375, repeated experiment, read-out: The results of antibiotic drug inhibiting cancer cell lines (cell viability analysis), A375): 102%
viability at 10 µM ([9]; A-375, drug 10 μM, 72 hours, WST-1, OD450 nm, read-out: cell viability (survival rate), A375): 65.1%
viability at 10 µM [10]: 116%
viability at 10 µM ([11]; 72 h, repeated experiment, read-out: The results of antibiotic drug inhibiting cancer cell lines (cell viability analysis), HeLa): 117%
viability at 10 µM ([11]; drug 10 μM, 72 hours, WST-1, OD450 nm, read-out: cell viability (survival rate), HeLa): 107%
viability at 10 µM [12]: 104%
viability at 10 µM ([13]; 72 h, PC-3, repeated experiment, read-out: The results of antibiotic drug inhibiting cancer cell lines (cell viability analysis), PC-3): 116%
viability at 10 µM ([13]; drug 10 μM, 72 hours, WST-1, OD450 nm, read-out: cell viability (survival rate), PC3): 54.8%
viability at 10 µM ([14]; 72 h, TSGH-8301, repeated experiment, read-out: The results of antibiotic drug inhibiting cancer cell lines (cell viability analysis), TSGH-8301): 122%
viability at 10 µM ([14]; drug 10 μM, 72 hours, WST-1, OD450 nm, read-out: cell viability (survival rate), TSGH): 42.6%
viability at 10 µM [15]: 92.5%
viability at 10 µM ([16]; MCF7, 72 h, MCF-7, repeated experiment, read-out: The results of antibiotic drug inhibiting cancer cell lines (cell viability analysis), MCF-7): 90.1%
viability at 10 µM ([16]; MCF7, drug 10 μM, 72 hours, WST-1, OD450 nm, read-out: cell viability (survival rate), MCF7): 94.4%
viability at 10 µM [17]: 96.3%
viability at 10 µM [18]: 72.9%
viability at 10 µM [19]: 82.8%
viability at 10 µM [20]: 102%
viability at 10 µM [21]: 92.3%
viability at 10 µM [22]: 76.4%
viability at 10 µM [23]: 60.2%
viability at 10 µM [24]: 100%
viability at 10 µM ([25]; HL-60, drug 10 μM, 72 hours, WST-1, OD450 nm, read-out: cell viability (survival rate), HL-60): 84.9%

CO[C@H]1/C=C/O[C@@]2(C)Oc3c(C)c(O)c4c(O)c(c(/C=N/N5CCN(C6CCCC6)CC5)c(O)c4c3C2=O)NC(=O)/C(C)=C\C=C\[C@H](C)[C@H](O)[C@@H](C)[C@@H](O)[C@@H](C)[C@H](OC(C)=O)[C@@H]1C [Rifapentine (Priftin), Rifapentine]
inhibition effect on different cancer cell lines [1]: significant inhibition effect
viability at 10 µM ([2]; NCI-H1650, 72 h, read-out: The results of antibiotic drug inhibiting cancer cell lines (cell viability analysis), H1650, H1650, repeated experiment): 69%
viability at 10 µM ([3]; A549, 72 h, read-out: The results of antibiotic drug inhibiting cancer cell lines (cell viability analysis), A549, A549, repeated experiment): 87.4%
viability at 10 µM ([3]; A549, 72 h, read-out: cell viability (survival rate), A549, drug 10 μM, 72 hours, WST-1, OD450 nm): 47.4%
viability at 10 µM ([4]; 72 h, read-out: The results of antibiotic drug inhibiting cancer cell lines (cell viability analysis), AGS, repeated experiment): 76.4%
viability at 10 µM ([4]; 72 h, read-out: cell viability (survival rate), AGS, drug 10 μM, 72 hours, WST-1, OD450 nm): 63.7%
viability at 10 µM ([5]; MKN-45, 72 h, read-out: The results of antibiotic drug inhibiting cancer cell lines (cell viability analysis), MKN-45, MKN-45, repeated experiment): 98.6%
viability at 10 µM ([5]; MKN-45, 72 h, read-out: cell viability (survival rate), MKN-45, drug 10 μM, 72 hours, WST-1, OD450 nm): 58.6%
viability at 10 µM ([6]; HepG2, 72 h, read-out: The results of antibiotic drug inhibiting cancer cell lines (cell viability analysis), HepG2, HepG2, repeated experiment): 112%
viability at 10 µM ([6]; HepG2, 72 h, read-out: cell viability (survival rate), HepG2, drug 10 μM, 72 hours, WST-1, OD450 nm): 102%
viability at 10 µM [7]: 110%
viability at 10 µM ([8]; 72 h, read-out: The results of antibiotic drug inhibiting cancer cell lines (cell viability analysis), LoVo, repeated experiment): 93.5%
viability at 10 µM ([8]; 72 h, read-out: cell viability (survival rate), LoVo, drug 10 μM, 72 hours, WST-1, OD450 nm): 92.3%
viability at 10 µM ([9]; A-375, 72 h, read-out: The results of antibiotic drug inhibiting cancer cell lines (cell viability analysis), A375, A375, repeated experiment): 98.2%
viability at 10 µM ([9]; A-375, 72 h, read-out: cell viability (survival rate), A375, drug 10 μM, 72 hours, WST-1, OD450 nm): 77.7%
viability at 10 µM [10]: 85.7%
viability at 10 µM ([11]; 72 h, read-out: The results of antibiotic drug inhibiting cancer cell lines (cell viability analysis), HeLa, repeated experiment): 104%
viability at 10 µM ([11]; 72 h, read-out: cell viability (survival rate), HeLa, drug 10 μM, 72 hours, WST-1, OD450 nm): 56.5%
viability at 10 µM [12]: 91.7%
viability at 10 µM ([13]; 72 h, read-out: The results of antibiotic drug inhibiting cancer cell lines (cell viability analysis), PC-3, PC-3, repeated experiment): 98.4%
viability at 10 µM ([13]; 72 h, read-out: cell viability (survival rate), PC3, drug 10 μM, 72 hours, WST-1, OD450 nm): 99.1%
viability at 10 µM ([14]; 72 h, read-out: The results of antibiotic drug inhibiting cancer cell lines (cell viability analysis), TSGH-8301, TSGH-8301, repeated experiment): 94.7%
viability at 10 µM ([14]; 72 h, read-out: cell viability (survival rate), TSGH, drug 10 μM, 72 hours, WST-1, OD450 nm): 99.2%
viability at 10 µM [15]: 86.3%
viability at 10 µM ([16]; MCF7, 72 h, read-out: The results of antibiotic drug inhibiting cancer cell lines (cell viability analysis), MCF-7, MCF-7, repeated experiment): 84.1%
viability at 10 µM ([16]; MCF7, 72 h, read-out: cell viability (survival rate), MCF7, drug 10 μM, 72 hours, WST-1, OD450 nm): 46.2%
viability at 10 µM [17]: 93.3%
viability at 10 µM [18]: 74%
viability at 10 µM [19]: 78.2%
viability at 10 µM [20]: 104%
viability at 10 µM [21]: 79.7%
viability at 10 µM [22]: 85.4%
viability at 10 µM [23]: 87.2%
viability at 10 µM [24]: 85.9%
viability at 10 µM ([25]; HL-60, 72 h, read-out: cell viability (survival rate), HL-60, drug 10 μM, 72 hours, WST-1, OD450 nm): 99.1%
